Columns and labels:
Aβ42 [1] = assay: Screening for γ-secretase-modulating activity, Method 1: Aβ42 sandwich ELISA in supernatant of SKNBE2 cells carrying APP 695 wild type (Tables 12a, 12b); format: cell-based
Method in brief: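 SKNBE2 cells expressing wild-type APP695 were treated with compound for 18 h, and secreted Aβ42 in the medium was quantified by sandwich ELISA (C-terminal-selective capture, biotinylated 3D6 detection, TMB read at 450 nm). IC50 came from 4-parameter fits of % inhibition or % of untreated control; toxicity was checked by WST-1.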

Aβtotal [2] = assay: Screening for γ-secretase-modulating activity, Method 1: Aβtotal sandwich ELISA in supernatant of SKNBE2 cells carrying APP 695 wild type (Tables 12a, 12b); format: cell-based
Method in brief: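 SKNBE2 cells expressing wild-type APP 695 were plated a day ahead, then exposed to compound in Ultraculture with 1% glutamine for 18 hours. Supernatant Aβtotal captured on 6E10 overnight at 4° C, detected with biotinylated 4G8 and streptavidin-peroxidase with a fluorogenic substrate. IC50 from 4-parameter dose-response fits.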

Aβ42 [3] = assay: Demonstration of in vivo efficacy: Aβ42 lowering in brain after single oral dose (Table 13); conditions: mouse brain soluble fraction, ELISA, mean, compared to untreated animals
Excerpt: (§1) To determine whether acute administration of an Aβ42 lowering agent would reduce Aβ42 levels in vivo, non-transgenic rodents, e.g. mice or rats were used. Alternatively, two to three month old Tg2576 mice expressing APP695 containing the “Swedish” variant can be used or a transgenic mouse model developed by Dr. Fred Van Leuven (K. U. Leuven, Belgium) and co-workers, with neuron-specific expression of a clinical mutant of the human amyloid precursor protein [V717I] (Moechars et al., 1999 J. Biol. Chem. 274, 6483). Young transgenic mice have high levels of Aβ in the brain but no detectable Aβ deposition. At approximately 6-8 months of age, the transgenic mice start to display spontaneous, progressive accumulation of β-amyloid (Aβ) in the brain, eventually resulting in amyloid plaques within the subiculum, hippocampus and cortex. Animals treated with the Aβ42 lowering agent were examined and compared to those untreated or treated with vehicle and brain levels of soluble Aβ42 and total Aβ would be quantitated by standard techniques, for example, using ELISA. Treatment periods varied from hours to days and were adjusted based on the results of the Aβ42 lowering once a time course of onset of effect could be established.
(§2) A typical protocol for measuring Aβ42 lowering in vivo is shown but it is only one of many variations that could be used to optimize the levels of detectable Aβ. For example, Aβ42 lowering compounds were formulated in 20% of Captisol® (a sulfobutyl ether of β-cyclodextrin) in water or 20% hydroxypropyl β cyclodextrin. The Aβ42 lowering agents were administered as a single oral dose or by any acceptable route of administration to overnight fasted animals. After four hours, the animals were sacrificed and Aβ42 levels were analysed.
(§3) Blood was collected by decapitation and exsanguinations in EDTA-treated collection tubes. Blood was centrifuged at 1900 g for 10 minutes at 4° C. and the plasma recovered and flash frozen for later analysis. The brain was removed from the cranium and hindbrain. The cerebellum was removed and the left and right hemisphere were separated. The left hemisphere was stored at −18° C. for quantitative analysis of test compound levels. The right hemisphere was rinsed with phosphate-buffered saline (PBS) buffer and immediately frozen on dry ice and stored at −80° C. until homogenization for biochemical assays.
(§4) Mouse brains were resuspended in 10 volumes of 0.4% DEA (diethylamine)/50 mM NaCl pH 10 (for non-transgenic animals) or 0.1% 3-[3-cholamidopropyl)-dimethyl-ammonio]-1-propanesulfonate (CHAPS) in tris buffered saline (TBS) (for transgenic animals) containing protease inhibitors (Roche-11873580001 or 04693159001) per gram of tissue, e.g. for 0.158 g brain, add 1.58 ml of 0.4% DEA. All samples were sonicated for 30 seconds on ice at 20% power output (pulse mode). Homogenates were centrifuged at 221.300×g for 50 min. The resulting high speed supernatants were then transferred to fresh tubes and were optionally further purified before the next step. A portion of the supernatant was neutralized with 10% 0.5 M Tris-HCl and this was used to quantify Aβtotal.
The obtained supernatants were purified with Water Oasis HLB reverse phase columns (Waters Corp., Milford, Mass.) to remove non-specific immunoreactive material from the brain lysates prior subsequent Aβ detection. Using a vacuum manifold, all solutions were passed through the columns at a rate of approximately 1 ml per minute, so the vacuum pressure was adjusted accordingly throughout the procedure. Columns were preconditioned with 1 ml of 100% MeOH, before equilibration with 1 ml of H2O. Non-neutralized brain lysates were loaded onto the columns. The loaded samples were then washed twice with the first wash performed with 1 ml of 5% MeOH, and the second wash with 1 ml of 30% MeOH. Finally, the Aβ was eluted from the columns and into 100×30 mm glass tubes, with a solution of 90% MeOH with 2% NH4OH. […]

Aβtotal [4] = assay: Demonstration of in vivo efficacy: Aβtotal lowering in brain after single oral dose (Table 13); conditions: mouse brain soluble fraction, mean, compared to untreated animals
Excerpt: as §1, §2, §3
as §4, with “Aβtotal. […]” for “Aβtotal.”
In this model at least 20% Aβ42 lowering compared to untreated animals would be advantageous.

Aβ42 [5] = assay: Screening for γ-secretase-modulating activity, Method 2: Aβ42 Alphalisa in supernatant of SKNBE2 cells carrying APP 695 wild type (Table 12c); format: cell-based; conditions: Homo sapiens, Method 2, Table 12c, incubated overnight
Method in brief: (§5)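 SKNBE2 cells expressing wild-type APP695, 10^4 cells/well, exposed to compound overnight at 37 °C; secreted Aβ42 and Aβtotal in supernatant measured by AlphaLISA sandwich immunoassays (Aβ42: C-terminal/N-terminal antibodies; Aβtotal: N-terminal/4G8). IC50 from 4-parameter fit of % untreated control.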

Aβtotal [6] = assay: Screening for γ-secretase-modulating activity, Method 2: Aβtotal Alphalisa in supernatant of SKNBE2 cells carrying APP 695 wild type (Table 12c); format: cell-based; conditions: Homo sapiens, Method 2, Table 12c, incubated overnight
Method in brief: as §5

[7] = Homo sapiens, Method 1, Table 12a, SKNBE2 cells carrying APP 695 wild type, compounds 18 hours, ELISA, curve top and bottom fixed to 100 and 0, hill slope 1
[8] = Homo sapiens, Table 12b, Method 1, SKNBE2 cells carrying APP 695 wild type, cell supernatant ELISA, averaged IC50 values, percentage of control vs log concentration
[9] = Homo sapiens, Table 12b, Method 1, SKNBE2 cells carrying APP 695 wild type, cell supernatant ELISA, averaged IC50 values
[10] = Table 12b, Method 1, SKNBE2 cells carrying APP 695 wild type, cell supernatant ELISA, averaged IC50 values, percentage of control vs log concentration
[11] = Table 12b, Method 1, SKNBE2 cells carrying APP 695 wild type, cell supernatant ELISA, averaged IC50 values

SMILES | IC50 (Aβ42 [1]; [7]) | IC50 (Aβ42 [1]; [8]) | IC50 (Aβtotal [2]; [7]) | IC50 (Aβtotal [2]; [9]) | melting point | IC50 (Aβ42 [5]) | IC50 (Aβtotal [6]) | IC50 (Aβ42 [1]; [10]) | IC50 (Aβtotal [2]; [11]) | Aβ42 (% Ctrl)_Mean (Aβ42 [3]) | Aβtotal (% Ctrl)_Mean (Aβtotal [4])
COc1cc(Nc2cccn3cc(-c4ccc(C#N)cc4)nc23)ccc1-n1cnc(C)c1 [Compound 31] | 595 nM | 589 nM | > 5000 nM | > 30200 nM | 193.4 °C | – | – | – | – | – | –
COc1cccc(-c2nc3c(Nc4ccc(-n5ccnc5)c(OC)c4)cccn3c2C)c1 [Compound 35] | 19 nM | 19 nM | > 1000 nM | > 3020 nM | 124.2 °C | – | – | – | – | – | –
CCN(CC)c1ccc(-c2cn3cccc(Nc4ccc(-n5cnc(C)c5)c(OC)c4)c3n2)cc1 [Compound 39] | 75 nM | 68 nM | > 3000 nM | > 3020 nM | – | – | – | – | – | 82 % Ctrl | 108 % Ctrl
COc1cccc(-c2nc3c(Nc4ccc(-n5cncn5)c(OC)c4)cccn3c2C)c1 [Compound 7] | 37 nM | 36 nM | > 1000 nM | > 3020 nM | – | – | – | – | – | 68 % Ctrl | 105 % Ctrl
COc1cc(Nc2cccn3cc(-c4ccc(N5CCOCC5)cc4)nc23)ccc1-n1cnc(C)c1 [Compound 40] | 62 nM | 56 nM | > 3000 nM | > 3020 nM | – | – | – | – | – | 80 % Ctrl | 99 % Ctrl
COc1cc(Nc2cccn3c(-c4ccc(F)cc4)cnc23)ccc1-n1cnc(C)c1 [Compound 8] | 541 nM | 562 nM | > 20000 nM | > 20000 nM | – | – | – | – | – | 88 % Ctrl | 96 % Ctrl
COc1cc(Nc2cccn3c(C)c(-c4ccc(CC(C)C)cc4)nc23)ccc1-n1cnc(C)c1 [Compound 38] | 54 nM | 51 nM | > 3000 nM | > 3020 nM | 224.6 °C | – | – | – | – | – | –
COc1cccc(-c2nc3c(Nc4ccc(-n5cnc(C)c5)c(OC)c4)cccn3c2C)c1 [Compound 34] | 9 nM | 9 nM | > 3000 nM | > 3020 nM | – | – | – | – | – | 63 % Ctrl | 100 % Ctrl
COc1ccccc1-c1cn2cccc(Nc3ccc(-n4cnc(C)c4)c(OC)c3)c2n1 [Compound 32] | 114 nM | 105 nM | > 5000 nM | > 5010 nM | – | – | – | – | – | 81 % Ctrl | 113 % Ctrl
COc1cc(Nc2cccn3c(C)c(-c4ccc(F)cc4F)nc23)ccc1-n1cnc(C)c1 [Compound 26] | 11 nM | 11 nM | > 3000 nM | > 3020 nM | – | – | – | – | – | 75 % Ctrl | 94 % Ctrl
COc1cc(Nc2cccn3c(C)c(-c4ccccc4F)nc23)ccc1-n1cnc(C)c1 [Compound 18] | 25 nM | 25 nM | > 10000 nM | > 10000 nM | – | – | – | – | – | 73 % Ctrl | 101 % Ctrl
COc1cc(Nc2cccn3cc(Cc4ccc(F)cc4)nc23)ccc1-n1cnc(C)c1 [Compound 3] | 30 nM | 148 nM | > 1000 nM | 12600 nM | – | – | – | – | – | 56 % Ctrl | 95 % Ctrl

Second part, led by results:

IC50 (Aβ42 [1]; [7]) | IC50 (Aβ42 [1]; [8]) | IC50 (Aβtotal [2]; [7]) | IC50 (Aβtotal [2]; [9]) | melting point | IC50 (Aβ42 [5]) | IC50 (Aβtotal [6]) | IC50 (Aβ42 [1]; [10]) | IC50 (Aβtotal [2]; [11]) | SMILES | Aβ42 (% Ctrl)_Mean (Aβ42 [3]) | Aβtotal (% Ctrl)_Mean (Aβtotal [4])
29 nM | 29 nM | > 3000 nM | > 3020 nM | 159.9 °C | – | – | – | – | CCc1cn(-c2ccc(Nc3cccn4c(C)c(-c5cccc(OC)c5)nc34)cc2OC)cn1 [Compound 63] | – | –
– | 3800 nM | – | > 10000 nM | 147.5 °C | – | – | – | – | COc1cc(Nc2cccn3cc(C)nc23)ccc1-n1cncn1 [Compound 80] | – | –
– | – | – | – | – | 68 nM | > 3020 nM | – | – | COc1cc(Nc2cccn3cc(-c4ccccc4C)nc23)ccc1-n1cnc(C)n1 [Compound 70] | 84 % Ctrl | 99 % Ctrl
– | – | – | – | – | – | – | 355 nM | > 10000 nM | Cc1ncn(-c2ccc(Nc3cccn4c(C)c(-c5ccccc5Cl)nc34)nc2)n1 [Compound 83] | 89 % Ctrl | 104 % Ctrl
10 nM | 10 nM | > 3000 nM | > 3020 nM | – | – | – | – | – | COc1cc(Nc2cccn3cc(-c4ccc(F)cc4C)nc23)ccc1-n1cnc(C)c1 [Compound 52] | 66 % Ctrl | 91 % Ctrl
– | 178 nM | – | > 3020 nM | 210 °C | – | – | – | – | Cc1ccc(C(F)(F)F)cc1-c1cn2cccc(Nc3ccc(-n4ncnc4C)c(F)c3)c2n1 [Compound 130] | – | –
– | – | – | – | – | – | – | 25 nM | > 10000 nM | Cc1ncn(-c2ccc(Nc3cccn4c(C)c(-c5ccccc5Cl)nc34)cn2)n1 [Compound 87] | 86 % Ctrl | 101 % Ctrl
– | 7410 nM | – | > 10000 nM | 230.6 °C | – | – | – | – | Cc1ncn(-c2ccc(Nc3cccn4c(C)c(C)nc34)cc2)n1 [Compound 79] | – | –
– | 115 nM | – | > 3020 nM | – | – | – | – | – | COc1ccc(C)c(-c2cn3cccc(Nc4ccc(-n5cnc(C)n5)c(F)c4)c3n2)c1 [Compound 94] | 96 % Ctrl | 101 % Ctrl
6440 nM | 9550 nM | > 10000 nM | > 10000 nM | 213.1 °C | – | – | – | – | Cc1cn2cccc(Nc3ccc(-n4cnc(C)n4)cc3)c2n1 [Compound 78] | – | –
– | – | – | – | – | – | – | 32 nM | > 3020 nM | Cc1ncn(-c2ccc(Nc3cccn4cc(-c5ccc(F)cc5C)nc34)cn2)n1 [Compound 98] | 84 % Ctrl | 97 % Ctrl
